Assay results as given in paper PMC11078827, “Characterization and functional evidence for Orf2 of Streptomyces sp. 139 as a novel dipeptidase E” (Applied Microbiology and Biotechnology, 2024).

B1: Orf2 (Streptomyces tendae) (protein)
chain: MTSREPTIVATSGGHRVGTRTRVMFDALVHHAVDLSGVHGRRPRVMYVGTAIGDAEHFTARMTEAARIAGFDLTPLHLFPMPNVEDVEATVLDQDVVWVMGGSVANLLAVWRVHGLDGVMRRAWQAGVVLSGVSAGSLCWFEGGATDSFGPELRPLTNALGLLPYGNGVHYDTDEGRRPLTHRLVADGTLPTAHCTDDGVGLVYRGTELVEAVAEIPGKGAYLVRREGDEAVEERIEPRMLTVPSTS
notes: full-length orf2 (744 bp) in pET30a(+), His-tagged (mutants in pET28a), E. coli BL21(DE3), Ni-NTA

Columns and labels:
[1] = target: T1, Orf2 (Streptomyces tendae, UniProt A0ABX5ZPB3, D198A); assay: absorbance at […] nm, activity assay; format: biochemical; details: 50 mM imidazole pH 7.5, 40 °C; substrate of the standard assay, not named again for the mutants
T1 construct: gene F3L20_11885; full-length orf2 (744 bp) in pET30a(+), His-tagged (mutants in pET28a), E. coli BL21(DE3), Ni-NTA
T1 sequence (A0ABX5ZPB3 entry or part of it D198A): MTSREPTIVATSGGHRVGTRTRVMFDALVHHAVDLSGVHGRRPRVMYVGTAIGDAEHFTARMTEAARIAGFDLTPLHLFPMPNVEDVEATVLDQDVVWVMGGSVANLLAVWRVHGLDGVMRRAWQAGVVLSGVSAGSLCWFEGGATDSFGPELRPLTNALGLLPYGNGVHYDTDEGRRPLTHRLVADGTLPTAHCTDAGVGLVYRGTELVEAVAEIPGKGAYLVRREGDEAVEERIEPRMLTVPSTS

[2] = target: T2, Orf2 (Streptomyces tendae, UniProt A0ABX5ZPB3, S134A); assay: absorbance at […] nm, activity assay; format: biochemical; details: 50 mM imidazole pH 7.5, 40 °C; substrate of the standard assay, not named again for the mutants
T2 construct: gene F3L20_11885; full-length orf2 (744 bp) in pET30a(+), His-tagged (mutants in pET28a), E. coli BL21(DE3), Ni-NTA
T2 sequence (A0ABX5ZPB3 entry or part of it S134A): as the sequence (A0ABX5ZPB3 entry or part of it D198A) above, with S134A, A198D counted along it

[3] = target: T3, Orf2 (Streptomyces tendae, UniProt A0ABX5ZPB3, H170A); assay: absorbance at […] nm, activity assay; format: biochemical; details: 50 mM imidazole pH 7.5, 40 °C; substrate of the standard assay, not named again for the mutants
T3 construct: gene F3L20_11885; full-length orf2 (744 bp) in pET30a(+), His-tagged (mutants in pET28a), E. coli BL21(DE3), Ni-NTA
T3 sequence (A0ABX5ZPB3 entry or part of it H170A): as the sequence (A0ABX5ZPB3 entry or part of it D198A) above, with H170A, A198D counted along it

[4] = target: T4, Orf2 (Streptomyces tendae, UniProt A0ABX5ZPB3, D147A); assay: absorbance at […] nm, activity assay; format: biochemical; details: 50 mM imidazole pH 7.5, 40 °C; substrate of the standard assay, not named again for the mutants
T4 construct: gene F3L20_11885; full-length orf2 (744 bp) in pET30a(+), His-tagged (mutants in pET28a), E. coli BL21(DE3), Ni-NTA
T4 sequence (A0ABX5ZPB3 entry or part of it D147A): as the sequence (A0ABX5ZPB3 entry or part of it D198A) above, with D147A, A198D counted along it

[5] = substrate: N[C@@H](CC(=O)O)C(=O)Nc1ccc([N+](=O)[O-])cc1; assay: purified protein; format: biochemical, Streptomyces tendae; details: 50 mM imidazole pH 7.5, 40 °C, 10 min, substrate 3.91-500 μM, hydrolysis of chromogenic substrate

Row | Molecule | absorbance at 405 nm, activity assay [1] | absorbance at 405 nm, activity assay [2] | absorbance at 405 nm, activity assay [3] | absorbance at 405 nm, activity assay [4] | Km [5] [µM] | kcat [5] [s⁻¹]
1 | N[C@@H](CC(=O)O)C(=O)Nc1ccc([N+](=O)[O-])cc1 [Asp-ρNA] | all of these mutant proteins lost their activity (data not shown) | all of these mutant proteins lost their activity (data not shown) | all of these mutant proteins lost their activity (data not shown) | all of these mutant proteins lost their activity (data not shown) |  | 
2 | B1 |  |  |  |  | 1709 | 5.628
